System: KRAS-mutant PDC multicell tumor spheroid viability
Experiment: Anticancer human tumor 521955-158-R2-J5-PDC patient-derived pancreatic carcinoma cell line growth inhibition [KRAS2]
Details: for viability, T/C: stronger effect = lower value
Procedure, shortened: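 Combination screen of spheroid viability in tumor-cell co-cultures with endothelial (HUVEC) and mesenchymal stem cell stroma. Each agent was tested in half-log dilutions, topping at clinical Cmax or at 10 microM without a known Cmax.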

[1] = curve of first compound, second compound 0.1 µM
[2] = curve of first compound, second compound 0.316 µM
[3] = curve of first compound, second compound 1 µM
[4] = curve of first compound, second compound 3.16 µM
[5] = curve of first compound, second compound 10 µM
[6] = second compound 0.1 µM, first compound 0.000316 µM
[7] = second compound 0.1 µM, first compound 0.001 µM
[8] = second compound 0.1 µM, first compound 0.00316 µM
[9] = second compound 0.1 µM, first compound 0.01 µM
[10] = second compound 0.1 µM, first compound 0.0316 µM
[11] = second compound 0.1 µM, first compound 0.1 µM
[12] = second compound 0.316 µM, first compound 0.000316 µM
[13] = second compound 0.316 µM, first compound 0.001 µM
[14] = second compound 0.316 µM, first compound 0.00316 µM
[15] = second compound 0.316 µM, first compound 0.01 µM
[16] = second compound 0.316 µM, first compound 0.0316 µM
[17] = second compound 0.316 µM, first compound 0.1 µM
[18] = second compound 1 µM, first compound 0.000316 µM
[19] = second compound 1 µM, first compound 0.001 µM
[20] = second compound 1 µM, first compound 0.00316 µM
[21] = second compound 1 µM, first compound 0.01 µM
[22] = second compound 1 µM, first compound 0.0316 µM
[23] = second compound 1 µM, first compound 0.1 µM
[24] = second compound 3.16 µM, first compound 0.000316 µM
[25] = second compound 3.16 µM, first compound 0.001 µM
[26] = second compound 3.16 µM, first compound 0.00316 µM
[27] = second compound 3.16 µM, first compound 0.01 µM
[28] = second compound 3.16 µM, first compound 0.0316 µM
[29] = second compound 3.16 µM, first compound 0.1 µM
[30] = second compound 10 µM, first compound 0.000316 µM
[31] = second compound 10 µM, first compound 0.001 µM
[32] = second compound 10 µM, first compound 0.00316 µM
[33] = second compound 10 µM, first compound 0.01 µM
[34] = second compound 10 µM, first compound 0.0316 µM
[35] = second compound 10 µM, first compound 0.1 µM
[36] = second compound 0.1 µM, first compound 0.316 µM
[37] = second compound 0.1 µM, first compound 1 µM
[38] = second compound 0.1 µM, first compound 3.16 µM
[39] = second compound 0.1 µM, first compound 10 µM
[40] = second compound 0.316 µM, first compound 0.316 µM
[41] = second compound 0.316 µM, first compound 1 µM
[42] = second compound 0.316 µM, first compound 3.16 µM
[43] = second compound 0.316 µM, first compound 10 µM
[44] = second compound 1 µM, first compound 0.316 µM
[45] = second compound 1 µM, first compound 1 µM
[46] = second compound 1 µM, first compound 3.16 µM
[47] = second compound 1 µM, first compound 10 µM
[48] = second compound 3.16 µM, first compound 0.316 µM
[49] = second compound 3.16 µM, first compound 1 µM
[50] = second compound 3.16 µM, first compound 3.16 µM
[51] = second compound 3.16 µM, first compound 10 µM
[52] = second compound 10 µM, first compound 0.316 µM
[53] = second compound 10 µM, first compound 1 µM
[54] = second compound 10 µM, first compound 3.16 µM
[55] = second compound 10 µM, first compound 10 µM
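Also: viability read after seven days of drug exposure.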

Row | SMILES | IC50 [1] | IC50 [2] | IC50 [3] | IC50 [4] | IC50 [5] | viability, T/C [9] | viability, T/C [10] | viability, T/C [11] | viability, T/C [15] | viability, T/C [16] | viability, T/C [17] | viability, T/C [21] | viability, T/C [22] | viability, T/C [23] | viability, T/C [27] | viability, T/C [28] | viability, T/C [29] | viability, T/C [33] | viability, T/C [34] | viability, T/C [35] | also measured
1 | CN(C)C/C=C/C(=O)Nc1cc2c(Nc3ccc(F)c(Cl)c3)ncnc2cc1O[C@H]1CCOC1 + CNCc1ccccc1-c1csc(C(C)Nc2nc(C)nc3cc(OC)c(OC)cc23)c1 | > 100 nM | > 100 nM | > 100 nM | 2.23 nM | < 0.316 nM | 91% | 88.9% | 77.3% | 92.6% | 98.5% | 64.4% | 100% | 97% | 97.7% | 0.26% | 85.9% | 1% | 0.16% | 0.23% | 0.24% | viability, T/C [6]: 107%; viability, T/C [7]: 104%; viability, T/C [8]: 93.3%; viability, T/C [12]: 110%; viability, T/C [13]: 93.5%; viability, T/C [14]: 81.1%; viability, T/C [18]: 113%; viability, T/C [19]: 120%; viability, T/C [20]: 100%; viability, T/C [24]: 114%; viability, T/C [25]: 116%; viability, T/C [26]: 0.23%; viability, T/C [30]: 0.27%; viability, T/C [31]: 0.27%; viability, T/C [32]: 0.18%
2 | COc1cc2nccc(Oc3ccc(NC(=O)C4(C(=O)Nc5ccc(F)cc5)CC4)cc3)c2cc1OC + COc1cc2nc(C)nc(NC(C)c3cc(N)cc(C(F)(F)F)c3)c2cc1OC1CCOC1 | 7430 nM | 7590 nM | 5580 nM | 3270 nM | 1470 nM |  | 93.7% | 99.6% |  | 99.7% | 98.1% |  | 89% | 96.1% |  | 100% | 96.8% |  | 93.4% | 73.2% | viability, T/C [36]: 88.6%; viability, T/C [37]: 95.1%; viability, T/C [38]: 85.6%; viability, T/C [39]: 37.4%; viability, T/C [40]: 88.6%; viability, T/C [41]: 88.9%; viability, T/C [42]: 83.6%; viability, T/C [43]: 39.5%; viability, T/C [44]: 96.6%; viability, T/C [45]: 90.1%; viability, T/C [46]: 72%; viability, T/C [47]: 27.5%; viability, T/C [48]: 101%; viability, T/C [49]: 105%; viability, T/C [50]: 51.2%; viability, T/C [51]: 6.41%; viability, T/C [52]: 67%; viability, T/C [53]: 74.8%; viability, T/C [54]: 0.78%; viability, T/C [55]: 0.24%
3 | O=C(c1cc(Cc2n[nH]c(=O)c3ccccc23)ccc1F)N1CCN(C(=O)C2CC2)CC1 + COc1cc2nc(C)nc(NC(C)c3cc(N)cc(C(F)(F)F)c3)c2cc1OC1CCOC1 | > 10000 nM | > 10000 nM | > 10000 nM | > 10000 nM | > 10000 nM |  | 92.5% | 71.2% |  | 81.2% | 66.3% |  | 107% | 102% |  | 108% | 96.6% |  | 107% | 119% | viability, T/C [36]: 83.6%; viability, T/C [37]: 88.9%; viability, T/C [38]: 75.5%; viability, T/C [39]: 74.5%; viability, T/C [40]: 70.2%; viability, T/C [41]: 73%; viability, T/C [42]: 79.6%; viability, T/C [43]: 58.2%; viability, T/C [44]: 94.6%; viability, T/C [45]: 96.3%; viability, T/C [46]: 92.3%; viability, T/C [47]: 64.6%; viability, T/C [48]: 97.5%; viability, T/C [49]: 83.9%; viability, T/C [50]: 81.1%; viability, T/C [51]: 51.5%; viability, T/C [52]: 112%; viability, T/C [53]: 96.8%; viability, T/C [54]: 86.8%; viability, T/C [55]: 65.2%
4 | Cn1ncnc1[C@H]1c2n[nH]c(=O)c3cc(F)cc(c23)N[C@@H]1c1ccc(F)cc1 + CC1OCC2(CCN(c3cnc(Sc4ccnc(N)c4Cl)c(N)n3)CC2)C1N | > 100 nM | > 100 nM | 3.6 nM | < 0.316 nM | < 0.316 nM | 63.6% | 63.7% | 53.3% | 55.6% | 46.6% | 55.1% | 45% | 45.4% | 51.4% | 44.5% | 41.9% | 41.8% | 38.5% | 37.9% | 40% | viability, T/C [6]: 72.5%; viability, T/C [7]: 75%; viability, T/C [8]: 63.8%; viability, T/C [12]: 58%; viability, T/C [13]: 58.2%; viability, T/C [14]: 61.5%; viability, T/C [18]: 56.7%; viability, T/C [19]: 53.4%; viability, T/C [20]: 52.7%; viability, T/C [24]: 46.4%; viability, T/C [25]: 44.4%; viability, T/C [26]: 46.5%; viability, T/C [30]: 43.6%; viability, T/C [31]: 47.5%; viability, T/C [32]: 46.5%
5 | CNCc1ccccc1-c1csc(C(C)Nc2nc(C)nc3cc(OC)c(OC)cc23)c1 (stereo not given) |  |  |  |  |  |  |  |  |  |  |  |  |  |  |  |  |  |  |  |  | viability, T/C (compound 0.1 µM): 93.3% [middle of 17 runs]; viability, T/C (compound 0.316 µM): 93.4% [middle of 17 runs]; viability, T/C (compound 10 µM): 0.16% [middle of 15 runs]; IC50 (compound alone, run of 08/26/2021): 1.68 µM [middle of 5 runs]; IC50 (compound alone, run of 09/02/2021): 1.82 µM [middle of 6 runs]
6 | CC(=O)OC12COC1CC(O)C1(C)C(=O)C(O)C3=C(C)C(OC(=O)C(O)C(NC(=O)OC(C)(C)C)c4ccccc4)CC(O)(C(OC(=O)c4ccccc4)C21)C3(C)C (stereo not given) + CC1OCC2(CCN(c3cnc(Sc4ccnc(N)c4Cl)c(N)n3)CC2)C1N | < 10 nM | < 10 nM | < 10 nM | < 10 nM | < 10 nM | 26.4% | 15.3% | 11.9% | 25.1% | 15.3% | 14% | 19.7% | 13% | 11.2% | 21.2% | 15.9% | 14.5% | 22.1% | 15.9% | 15.2% | viability, T/C [36]: 14.5%; viability, T/C [37]: 16.1%; viability, T/C [38]: 19.7%; viability, T/C [40]: 11.1%; viability, T/C [41]: 17.7%; viability, T/C [42]: 18.2%; viability, T/C [44]: 13.1%; viability, T/C [45]: 15.6%; viability, T/C [46]: 20.7%; viability, T/C [48]: 12.7%; viability, T/C [49]: 19.5%; viability, T/C [50]: 23.2%; viability, T/C [52]: 17.3%; viability, T/C [53]: 14.6%; viability, T/C [54]: 22.3%
7 | CC1COCCN1c1cc(-c2ccnn2C)c2ccnc(-c3ccn[nH]3)c2n1 (stereo not given) + CC1OCC2(CCN(c3cnc(Sc4ccnc(N)c4Cl)c(N)n3)CC2)C1N | 18.3 nM | 16.1 nM | 13.2 nM | 13.9 nM | 10.6 nM | 75% | 27.6% | 7.87% | 67.2% | 25.4% | 6.51% | 56.6% | 29% | 7.13% | 59.9% | 25.4% | 7.05% | 51.3% | 27.4% | 7.9% | viability, T/C [36]: 9.44%; viability, T/C [37]: 14.9%; viability, T/C [38]: 16.7%; viability, T/C [40]: 8.34%; viability, T/C [41]: 12.3%; viability, T/C [42]: 17.1%; viability, T/C [44]: 7.87%; viability, T/C [45]: 11.1%; viability, T/C [46]: 17.2%; viability, T/C [48]: 7.79%; viability, T/C [49]: 10.5%; viability, T/C [50]: 16.8%; viability, T/C [52]: 8.11%; viability, T/C [53]: 11.4%; viability, T/C [54]: 15.6%
